According to PMC9986241 (Signal Transduction and Targeted Therapy, 2023):
Values belong to the compound of their own block, whether it stands above or below them.

What was measured:
EGFR(T790M)(h) = biological target: T1, EGFR(T790M)(h) (Homo sapiens, UniProt P00533, T790M); assay: KinaseProfiler enzyme profiling; format: biochemical
T1 construct: purchased Eurofins KinaseProfiler
Protocol: (§1) Enzyme profiling services were provided by KinaseProfiler™ (Eurofin, Brussels, Belgium). The concentration of erianin was 100 nM, and total 70 kinases were tested in this in vitro screening and profiling services (2 repetitions). For more details, refer to the manufacturer’s instructions (www.eurofinsdiscoveryservices.com).

LKB1(h) = biological target: T2, LKB1(h) (Homo sapiens, UniProt Q15831); assay: KinaseProfiler enzyme profiling; format: biochemical
T2 construct: purchased Eurofins KinaseProfiler
Protocol: as §1

CK1γ1(h) = biological target: T3, CK1γ1(h) (Homo sapiens, UniProt Q9HCP0); assay: KinaseProfiler enzyme profiling; format: biochemical
T3 construct: purchased Eurofins KinaseProfiler
Protocol: as §1

EphA1(h) = biological target: T4, EphA1(h) (Homo sapiens, UniProt P21709); assay: KinaseProfiler enzyme profiling; format: biochemical; conditions: 100 nM
T4 construct: purchased Eurofins KinaseProfiler
Protocol: as §1

CDK5/p25(h) = biological target: T5, CDK5/p25(h) (Homo sapiens, UniProt Q00535); assay: KinaseProfiler enzyme profiling; format: biochemical; conditions: 100 nM
T5 construct: purchased Eurofins KinaseProfiler
Protocol: as §1

TYK2(h) = biological target: T6, TYK2(h) (Homo sapiens, UniProt P29597); assay: KinaseProfiler enzyme profiling; format: biochemical; conditions: 100 nM
T6 construct: purchased Eurofins KinaseProfiler
Protocol: as §1

Snk(h) = biological target: T7, Snk(h) (Homo sapiens, UniProt Q9NYY3); assay: KinaseProfiler enzyme profiling; format: biochemical; conditions: 100 nM
T7 construct: purchased Eurofins KinaseProfiler
Protocol: as §1

CRAF = biological target: T8, CRAF (Homo sapiens, UniProt P04049, Y340E/Y341E); assay: Luminescent ADP detection (ADP-glo kinase) assay; format: biochemical; conditions: 1–100 nM
T8 construct: purchased Signal Chem R01-13G
Protocol: (§2) After incubated with 100–400 μM ATP in kinase assay buffer for 30 min, the phosphorylation of the substrate/total substrate protein was detected by western blotting. For ADP-glo kinase assay, unconsumed ATP was depleted with the addition of ADP-Glo™. Followed by kinase detection reagent to convert ADP to ATP, consumption of ATP was detected to evaluate the kinase activity. For more details, refer to the manufacturer’s instructions of ADP-Glo™ Kinase Assay.

MEK2 = MEK2 (Homo sapiens, UniProt P36507); assay: Luminescent ADP detection (ADP-glo kinase) assay; format: biochemical; conditions: 1–100 nM
Protocol: as §2

MEK1 = MEK1 (Homo sapiens, UniProt Q02750); assay: Luminescent ADP detection (ADP-glo kinase) assay; format: biochemical; conditions: 1–100 nM
Protocol: as §2

[1] = test system: SK-MEL-2, A375, SK-MEL-28, and HCT 116 cells; assay: MTT growth assay at 24, 48, or 72 h; format: cell-based, human; conditions: both BRAF and RAS mutant cell lines
Protocol: (§3) The synergism and antagonism (CI value) were determined and analyzed using CompuSyn 1.0.
For cytotoxicity test, normal NHDF (5000 cells/well) and NHEM cell line (3000 cells/well) were planted into 96-well plates. For cell proliferation assay, A375 (1500 cells/well), SK-MEL-28 (3000 cells/well), SK-MEL-2 (4000 cells/well), and HCT116 (1500 cells/well) were planted into 96-well plates, determined concentration of drug was added after culture for 24 h. The viability of the cells was detected within 72 h using MTT solution (5 mg/mL). The absorbance at 570/490 nm was quantified by the use of the microplate reader.

[2] = test system: SK-MEL-2, A375, SK-MEL-28, and HCT 116; assay: Combination index assay; format: cell-based, human; conditions: erianin with vemurafenib; most of the CI; BRAF and RAS mutant cell lines
Protocol: as §3, §3

[3] = test system: colorectal cancer PDX harboring KRAS mutation; assay: Patient-derived xenograft (PDX); design: species or system NOD-SCID mice; conditions: mouse, in vivo
Description: Figure S7. […] Tumor volume of (c). e Tumor weight of (c). f, h Changes of body weight after drug administration in melanoma and CRC PDX model. g, i HE staining of liver and spleen in melanoma PDX model. Scale bars: 200 μm.

Pharmacokinetic assay = format: in vivo, Kunming mice; conditions: Kunming, mouse, plasma; oral gavage 50 mg/kg vs tail vein injection 25 mg/kg
Description: For pharmacokinetic study of erianin, LC-MS/MS was implemented to monitor the plasma concentration over times and associated parameters. Chromatographic separation was obtained on an ZORBAX SB-C18 column (3.5 μm, 3.0 × 100 mm). 85% acetonitrile was selected as the mobile phase. The conditions of ESI source were optimized as follows: Spray voltage 4000 V; nitrogen for dying with a flow rate of 11 L/min. Detect the selected reaction monitoring mode for quantification, m/z 315.0 > 180.8 for IS and m/z 319.1 > 150.9 for erianin, respectively. 2′-Hydroxy-4,4′,6′-trimethoxychalcone (500 ng/mL) was selected as internal standard. After the validation of standard curves (0.1, 1, 5, 10, 50, 100, 500, 800, and 1200 ng/mL for oral; 10, 50, 100, 500, 800, 1200, 2400, 4800, 9600 ng/mL for intravenous) and methods including selectivity, linearity, sensitivity, precision and stability, erianin was given to Kunming mice through oral gavage (50 mg/kg, n = 6) or tail vein injection (25 mg/kg, n = 4). A series of time points including 0, 0.083, 0.25, 0.5, 0.75, 1, 2, 3, 4, and 8 h were set for blood extraction. The pharmacokinetic parameters were analyzed using DAS 2.0. Absolute bioavailability (F%) = (AUCoral × Div)/(AUCiv × Doral) × 100%.

melanoma PDX = assay: Patient-derived xenograft (PDX); format: in vivo
Protocol: Fig. 7 Erianin exerts antitumor efficacy in melanoma and colorectal cancer in vivo. a Tumor pharmacodynamic assay was performed in tumor-bearing NPG mice (tumor has been passaged from melanoma patient to mice for three generations). The photographs show tumors from melanoma PDX mice treated with vehicle or drugs. b The effect of erianin on the volume of PDX tumors over time (within 78 days) was plotted. Vehicle, erianin (50 mg/kg, once a day), vemurafenib (50 mg/kg, once a day), erianin and vemurafenib combination therapy, cobimetinib (5 mg/kg, twice a week) or vemurafenib and cobimetinib combination therapy (once a day and twice a week, respectively) were administered by oral gavage, n = 8 in each group. Tumor volume was measured once a week. […] Scale bars: 20 μm. One-way ANOVA test. ***p < 0.001. e Antitumor efficacy of erianin with or without immunity using B16F10 cell xenograft in C57BL-6J mouse. f, g Trend of tumor volume over time and tumor weight was measured after treatment on the last day of the study.

NEK7(h) = biological target: T9, NEK7(h) (Homo sapiens, UniProt Q8TDX7); assay: KinaseProfiler enzyme profiling; format: biochemical
T9 construct: purchased Eurofins KinaseProfiler
Protocol: as §1

SAPK2a(h) = biological target: T10, SAPK2a(h) (Homo sapiens, UniProt Q16539); assay: KinaseProfiler enzyme profiling; format: biochemical
T10 construct: purchased Eurofins KinaseProfiler
Protocol: as §1

T10 sequence (Q16539 whole entry): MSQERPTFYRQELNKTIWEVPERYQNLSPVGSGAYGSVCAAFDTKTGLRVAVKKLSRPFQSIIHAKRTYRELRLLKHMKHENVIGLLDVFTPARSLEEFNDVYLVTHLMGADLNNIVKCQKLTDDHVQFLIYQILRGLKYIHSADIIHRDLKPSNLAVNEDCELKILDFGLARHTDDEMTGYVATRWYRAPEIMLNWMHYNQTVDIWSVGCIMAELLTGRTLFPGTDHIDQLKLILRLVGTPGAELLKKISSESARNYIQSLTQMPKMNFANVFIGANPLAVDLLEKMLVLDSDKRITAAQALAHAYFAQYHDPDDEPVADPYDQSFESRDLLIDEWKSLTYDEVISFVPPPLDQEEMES
MEK1, sequence (Q02750 whole entry): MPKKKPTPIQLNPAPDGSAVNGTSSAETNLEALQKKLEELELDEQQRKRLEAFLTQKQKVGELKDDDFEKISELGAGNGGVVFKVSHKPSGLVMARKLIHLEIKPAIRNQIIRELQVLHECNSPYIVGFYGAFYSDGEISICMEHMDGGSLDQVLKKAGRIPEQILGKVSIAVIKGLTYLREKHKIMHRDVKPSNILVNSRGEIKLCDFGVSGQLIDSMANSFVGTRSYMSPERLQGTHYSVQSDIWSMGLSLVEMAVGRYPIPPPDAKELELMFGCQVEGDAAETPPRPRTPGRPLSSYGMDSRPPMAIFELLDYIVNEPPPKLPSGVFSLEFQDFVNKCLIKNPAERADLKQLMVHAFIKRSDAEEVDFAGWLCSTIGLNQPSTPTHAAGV
T7 sequence (Q9NYY3 whole entry): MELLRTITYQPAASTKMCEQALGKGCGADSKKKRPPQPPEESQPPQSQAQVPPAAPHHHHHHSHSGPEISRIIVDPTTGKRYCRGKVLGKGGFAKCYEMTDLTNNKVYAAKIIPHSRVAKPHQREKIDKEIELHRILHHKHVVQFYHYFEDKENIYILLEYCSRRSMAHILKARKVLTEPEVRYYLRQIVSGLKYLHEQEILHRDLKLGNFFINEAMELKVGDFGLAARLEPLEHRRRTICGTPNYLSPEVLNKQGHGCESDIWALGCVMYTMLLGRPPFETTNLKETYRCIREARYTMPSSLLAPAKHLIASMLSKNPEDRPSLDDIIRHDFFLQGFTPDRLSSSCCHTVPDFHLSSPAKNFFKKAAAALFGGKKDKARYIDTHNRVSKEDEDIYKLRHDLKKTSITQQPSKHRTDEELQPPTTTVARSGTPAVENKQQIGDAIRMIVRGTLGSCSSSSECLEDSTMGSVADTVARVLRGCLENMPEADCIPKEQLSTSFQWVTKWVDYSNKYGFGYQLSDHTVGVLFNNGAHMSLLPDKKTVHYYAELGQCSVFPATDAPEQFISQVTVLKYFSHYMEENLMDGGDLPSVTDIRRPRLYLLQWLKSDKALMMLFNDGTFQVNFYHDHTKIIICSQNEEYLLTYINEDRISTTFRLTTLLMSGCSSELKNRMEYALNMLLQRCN
T8 sequence (P04049 306-648 Y340E/Y341E): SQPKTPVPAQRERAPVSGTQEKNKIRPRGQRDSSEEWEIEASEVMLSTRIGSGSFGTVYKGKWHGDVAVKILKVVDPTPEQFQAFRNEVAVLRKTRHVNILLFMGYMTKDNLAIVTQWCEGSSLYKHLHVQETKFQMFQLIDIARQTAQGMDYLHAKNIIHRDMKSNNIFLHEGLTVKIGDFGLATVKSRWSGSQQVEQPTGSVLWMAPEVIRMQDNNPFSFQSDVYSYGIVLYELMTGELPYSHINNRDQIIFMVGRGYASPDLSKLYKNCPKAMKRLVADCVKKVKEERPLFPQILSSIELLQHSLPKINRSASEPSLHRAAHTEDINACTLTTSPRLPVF
T5 sequence (Q00535 whole entry): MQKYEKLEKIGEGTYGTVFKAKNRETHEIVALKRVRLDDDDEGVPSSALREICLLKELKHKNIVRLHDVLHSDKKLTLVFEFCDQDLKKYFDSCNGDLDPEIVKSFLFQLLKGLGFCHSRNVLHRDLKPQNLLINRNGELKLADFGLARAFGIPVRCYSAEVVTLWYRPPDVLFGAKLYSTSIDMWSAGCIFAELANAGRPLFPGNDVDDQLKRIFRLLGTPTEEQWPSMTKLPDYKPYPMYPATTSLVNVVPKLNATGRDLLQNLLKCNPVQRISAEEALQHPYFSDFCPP
T5 sequence (Q15078 99-307 partner limits assumed): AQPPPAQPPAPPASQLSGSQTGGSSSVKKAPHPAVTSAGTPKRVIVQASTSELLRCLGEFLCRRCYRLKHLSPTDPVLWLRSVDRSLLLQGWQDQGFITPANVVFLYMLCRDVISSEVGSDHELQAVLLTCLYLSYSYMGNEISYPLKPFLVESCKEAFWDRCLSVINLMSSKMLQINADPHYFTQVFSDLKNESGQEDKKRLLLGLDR
T2 sequence (Q15831 whole entry): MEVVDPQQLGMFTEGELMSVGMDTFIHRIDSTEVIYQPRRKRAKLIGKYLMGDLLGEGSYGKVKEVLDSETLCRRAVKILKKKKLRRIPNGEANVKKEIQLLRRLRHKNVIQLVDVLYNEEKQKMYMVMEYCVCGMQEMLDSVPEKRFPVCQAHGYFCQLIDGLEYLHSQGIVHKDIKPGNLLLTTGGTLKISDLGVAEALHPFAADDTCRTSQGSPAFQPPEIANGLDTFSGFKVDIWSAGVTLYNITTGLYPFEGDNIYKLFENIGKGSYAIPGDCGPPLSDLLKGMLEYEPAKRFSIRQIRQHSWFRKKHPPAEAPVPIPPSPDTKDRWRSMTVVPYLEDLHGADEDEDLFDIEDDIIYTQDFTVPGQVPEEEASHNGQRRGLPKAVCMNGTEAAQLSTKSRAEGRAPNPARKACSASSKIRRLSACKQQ
T2 sequence (Q7RTN6 whole entry partner): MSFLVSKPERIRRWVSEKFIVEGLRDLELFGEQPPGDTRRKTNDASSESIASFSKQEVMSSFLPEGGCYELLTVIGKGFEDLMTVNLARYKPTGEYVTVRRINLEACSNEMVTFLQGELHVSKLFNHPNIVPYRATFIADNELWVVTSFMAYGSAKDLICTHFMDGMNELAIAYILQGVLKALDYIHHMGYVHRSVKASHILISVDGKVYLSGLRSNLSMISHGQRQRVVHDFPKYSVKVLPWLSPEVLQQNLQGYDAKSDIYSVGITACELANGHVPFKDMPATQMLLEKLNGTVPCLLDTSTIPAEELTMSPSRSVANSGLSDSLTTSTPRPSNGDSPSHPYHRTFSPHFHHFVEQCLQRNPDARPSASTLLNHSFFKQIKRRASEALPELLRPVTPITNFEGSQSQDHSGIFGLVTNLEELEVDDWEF
T2 sequence (Q9Y376 whole entry partner): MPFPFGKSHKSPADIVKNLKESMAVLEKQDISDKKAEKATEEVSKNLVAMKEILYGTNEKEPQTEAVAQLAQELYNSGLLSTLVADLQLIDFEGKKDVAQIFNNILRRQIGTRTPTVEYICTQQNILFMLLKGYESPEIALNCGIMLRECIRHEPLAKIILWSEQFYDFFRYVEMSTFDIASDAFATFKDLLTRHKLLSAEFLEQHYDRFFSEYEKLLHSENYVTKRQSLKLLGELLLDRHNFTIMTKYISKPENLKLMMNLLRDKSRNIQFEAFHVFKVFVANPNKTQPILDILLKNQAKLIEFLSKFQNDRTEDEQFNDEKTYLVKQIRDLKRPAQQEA
T9 sequence (Q8TDX7 whole entry): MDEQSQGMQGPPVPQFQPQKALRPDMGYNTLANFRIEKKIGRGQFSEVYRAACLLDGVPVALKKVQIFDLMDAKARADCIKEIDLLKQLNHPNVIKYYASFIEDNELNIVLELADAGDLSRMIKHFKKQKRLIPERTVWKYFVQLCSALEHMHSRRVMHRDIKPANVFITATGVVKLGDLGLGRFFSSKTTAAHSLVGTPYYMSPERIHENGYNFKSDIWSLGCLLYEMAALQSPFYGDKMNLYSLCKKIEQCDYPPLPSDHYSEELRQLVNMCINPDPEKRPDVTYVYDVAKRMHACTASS
T4 sequence (P21709 26-976): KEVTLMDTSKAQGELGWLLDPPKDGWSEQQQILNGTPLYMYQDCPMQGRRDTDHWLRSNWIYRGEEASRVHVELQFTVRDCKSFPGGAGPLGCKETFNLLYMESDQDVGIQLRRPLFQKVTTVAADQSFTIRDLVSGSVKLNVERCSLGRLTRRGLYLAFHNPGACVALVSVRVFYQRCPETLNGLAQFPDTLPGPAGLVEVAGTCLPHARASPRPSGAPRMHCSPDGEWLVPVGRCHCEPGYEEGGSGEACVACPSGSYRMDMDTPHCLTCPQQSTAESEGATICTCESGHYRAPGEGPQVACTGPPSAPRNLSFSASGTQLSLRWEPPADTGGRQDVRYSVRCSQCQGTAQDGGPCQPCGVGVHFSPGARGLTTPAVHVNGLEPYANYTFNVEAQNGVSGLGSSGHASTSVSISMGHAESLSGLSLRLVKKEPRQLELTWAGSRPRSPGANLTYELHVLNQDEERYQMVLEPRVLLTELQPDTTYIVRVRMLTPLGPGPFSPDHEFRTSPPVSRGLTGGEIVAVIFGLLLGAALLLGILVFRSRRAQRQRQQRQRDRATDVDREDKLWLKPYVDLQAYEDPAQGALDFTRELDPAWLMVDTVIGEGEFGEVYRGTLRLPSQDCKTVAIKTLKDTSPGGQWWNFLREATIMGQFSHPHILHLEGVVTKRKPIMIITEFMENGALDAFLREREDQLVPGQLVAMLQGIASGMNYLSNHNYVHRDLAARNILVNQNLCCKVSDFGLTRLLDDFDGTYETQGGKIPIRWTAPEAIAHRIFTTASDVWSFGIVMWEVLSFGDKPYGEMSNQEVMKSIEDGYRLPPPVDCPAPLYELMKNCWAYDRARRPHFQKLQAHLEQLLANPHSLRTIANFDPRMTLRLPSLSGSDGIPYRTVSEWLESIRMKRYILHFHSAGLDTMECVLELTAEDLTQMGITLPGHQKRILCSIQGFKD

activity at 10 µM (EGFR(T790M)(h)): 117%
activity at 10 µM (LKB1(h)): 96%
activity at 10 µM (CK1γ1(h)): 103%
Compound: COc1cc2oc(-c3ccc(O)c(O)c3)cc(=O)c2c(O)c1OC [Cirsiliol]

Compound: COc1ccc(CCc2cc(OC)c(OC)c(OC)c2)cc1O [Erianin]
activity at 0.1 µM (EphA1(h)): 101%
activity at 0.1 µM (CDK5/p25(h)): 102%
activity at 0.1 µM (TYK2(h)): 100%
activity at 0.1 µM (Snk(h)): 109%
kinase activity (luminescence signal) (CRAF): inhibited the kinase activity
kinase activity (luminescence signal) (MEK2): inhibited the kinase activity
kinase activity (luminescence signal) (MEK1): inhibited the kinase activity
proliferation [1]: markedly suppress
combination index (CI) [2]: ≤ 1
toxicity in body weight [3]: low toxicity
tumor growth [3]: restrained tumor growth significantly
bioavailability (Pharmacokinetic assay): 8 ± 1.1%
body weight (melanoma PDX; 50 mg/kg once a day, oral gavage): without significant changes
toxicity sign (HE staining) (melanoma PDX; HE staining of liver and spleen): neither erianin group nor erianin-vemurafenib combination therapy showed toxicity sign
tumor volume (melanoma PDX; oral gavage, erianin, vemurafenib 50 mg/kg once a day, cobimetinib 5 mg/kg twice a week, within 78 days): significant decrease

activity at 10 µM (NEK7(h)): 101%
activity at 10 µM (SAPK2a(h)): 141%
Compound: C=C1C(=O)[C@]23[C@H](O)[C@H]1CC[C@H]2[C@@]12CO[C@]3(O)[C@@H](O)[C@@H]1C(C)(C)CC[C@@H]2O [Oridonin]
